Test results as given in US6071884A, “Pharmaceutical compositions and therapeutic methods” (Kirin Beer Kabushiki Kaisha, priority 1992, dated 2000).

Columns and labels:
[1] = tested on: marrow cells (mononuclear cell fraction); experiment: Proliferation-stimulating effect on marrow cell of mouse (3H-TdR uptake); assay type: cell-based, mouse (BALB/c); settings: percentage of control, 72 h; for activity at 0.1 µg/mL: 10^-1 μg/ml; for activity at 0.01 µg/mL: 10^-2 μg/ml; for activity at 0.001 µg/mL: 10^-3 μg/ml; for activity at 1 µg/mL: 10^0 μg/ml
In short: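 Mononuclear marrow cell fraction from 7-week-old female BALB/c mouse thigh bone, 1.5×10^6 cells/ml in 10% FCS RPMI 1640, cultured with test sample 72 h at 37° C. ³H-thymidine (0.5 μCi/well) then added for 8 h; nuclear ³H-TdR uptake counted by liquid scintillation.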

[2] = Life-span-increasing effect on irradiation of a lethal dose of radiation; assay type: in vivo, mouse (BDF1); settings: 10 mice/group, 9 Gy X-ray, 0.1 mg/kg i.v. days 0, 4, 8
Protocol: Pharmacological Test 4: Life-Span-Increasing Effect on Irradiation of a Lethal Dose of Radiation
An experiment was carried out by using 6 week old female BDF1 mice purchased from Japan SLC Co., Ltd., with 10 mice made one group.
The entire bodies of the entire body of the mice were irradiated with 9 Gy of X-rays by using a Hitachi X-ray irradiator (MBR-1520R), and the day on which the X-ray was irradiated was referred to as "day 0".

blood platelets [3] = experiment: Thrombocytopenia-inhibiting effect in X-ray-irradiated mice; assay type: in vivo, mouse (BDF1); settings: 10 days after 5 Gy X-ray; 0.1 mg/kg i.v. within 2 h; mean ± SD; vehicle per series 10.3, 6.8, 6.7; non-treatment 68.2, 96.9, 73.0
In short: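 Female BDF1 mice, 6 weeks old, six per group, given 5 Gy whole-body X-ray, then 0.1 mg/kg i.v. via tail vein within 2 hours. Platelets counted by hemocytometer in fundus-vein blood 10 days later; untreated and vehicle groups run alongside.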

blood platelets [4] = experiment: Blood-platelet-increasing effect upon normal mouse; assay type: in vivo, mouse (BDF1); settings: normal mice; 6 days after 0.1 mg/kg i.v.; mean ± SD; vehicle per series 58.2, 63.0, 71.1
In short: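 Female BDF1 mice, 6 weeks old (5 per group), received test sample at 0.1 mg/kg into the caudal vein. Six days later, fundus-vein blood was taken and platelets counted on a multi-channel hemocytometer, compared against vehicle-treated animals.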

Acute toxicity = assay type: in vivo; settings: 7 days
Protocol: Test Example 2: Acute Toxicity
0.1, 1.0 or 10 mg/kg of Compound 5 or 33 was intravenously administered to Crj:CD rats (male, 5 weeks old), 6 rats in one group. 7 days after the administration, a toxicity test was carried out.

[5] = tested on: mononuclear cell fraction of human umbilical cord blood; experiment: Proliferation-stimulating effect on mononuclear cell fraction of human umbilical cord blood (3H-TdR uptake); assay type: cell-based; settings: 96 h, percentage of control, 4 days; for activity at 0.1 µg/mL: 10^-1 μg/ml; for activity at 0.01 µg/mL: 10^-2 μg/ml; for activity at 0.001 µg/mL: 10^-3 μg/ml
Source text: Pharmacological Test 3: Proliferation-Stimulating Effect on Mononuclear Cell Fraction of Human Umbilical Cord Blood
It is extremely difficult to obtain human marrow cells. In addition, human umbilical cord blood contains stem cells (Nakahata, T. & Ogwa, M., J. Clin. Inveet. 70, 1324-1328 (1982)), so that it can be a good source of hematopoietic stem/progenitor cell supply (H. E. Broxneyer et al, Proc. Natl. Acad. Sci. USA, 86, 3828-3832 (1989)). For these reasons, the effect on human was examined by using, instead of human marrow cells, human umbilical cord blood.
To human umbilical cord blood was added an equal amount of RPMI 1640. This was placed on a Lymphoprep and centrifugal. The mononuclear cell fraction (MNF) thus obtained was used in the following experiment.
The concentration of the MNF was adjusted to 1×10^6 cells/ml by using an RPMI 1640 added with 10% auto-blood plasma as a culture medium. 10 μl/well of a sample with a predetermined concentration and 100 μl/well of the above-prepared MNF were placed on a round-bottomed 96 well plate and incubated under the conditions of 37° C. and 5% CO2 for 4 days. Thereafter, 0.5 μCi/well of ^3 H-TdR was added. After 8 hour incubation, the cells were harvested, and the amount of the 3H-TdR taken in the nuclei was measured by a liquid scintillation counter.

[6] = day 10, controls per series 10, 10, 10, 10, 10, 8
[7] = day 15, controls per series 8, 9, 5, 5, 7, 1
[8] = day 20, controls per series 4, 5, 1, 2, 3, 0
[9] = day 25, controls per series 3, 3, 0, 0, 2, 0
[10] = day 30, controls per series 1, 1, 0, 0, 0, 0

| Structure (SMILES) | activity at 0.1 µg/mL [1] [%] | activity at 0.01 µg/mL [1] [%] | activity at 0.001 µg/mL [1] [%] | Number of Surviving Mice [2, 6] [mice] | Number of Surviving Mice [2, 7] [mice] | Number of Surviving Mice [2, 8] [mice] | Number of Surviving Mice [2, 9] [mice] | Number of Surviving Mice [2, 10] [mice] | Number of Surviving Mice ([2]; day 35, all controls 0) [mice] | Number of Surviving Mice ([2]; day 40, all controls 0) [mice] | Number of Blood Platelets (blood platelets [3]) | Number of Blood Platelets (blood platelets [4]) | death of rats (Acute toxicity; 10 mg/kg i.v.) | post-mortem examination (Acute toxicity; i.v. 0.1, 1.0 or 10 mg/kg) | activity at 1 µg/mL [1] [%] | activity at 0.1 µg/mL [5] [%] | activity at 0.01 µg/mL [5] [%] | activity at 0.001 µg/mL [5] [%] |
| --- | --- | --- | --- | --- | --- | --- | --- | --- | --- | --- | --- | --- | --- | --- | --- | --- | --- | --- |
| CCCCCCCCCCCCCCC[C@@H](O)[C@H](CO[C@H]1O[C@H](CO)[C@H](O)[C@H](O)[C@H]1O)NC(=O)CCCCCCCCCCCCC [Compound 5, (2S,3R)-1-(α-D-galactopyranosyloxy)-2-tetradecanoylamino-3-octadecanol] | 377 | 261 | 234 | 10 | 9 | 9 | 9 | 9 | 9 | 9 | 20.3 ± 4.5 × 10^4 /μl | 106.0 ± 9.0 × 10^4 /μl | the rats did not die | no abnormality was found | – | – | – | – |
| CCCCCCCCCCCCCCCCCCCCCC[C@@H](O)C(=O)N[C@@H](CO[C@H]1O[C@H](CO)[C@H](O)[C@H](O)[C@H]1O)[C@H](O)[C@H](O)CCCCCCCCCCC [Compound 23, (2S,3S,4R)-1-(α-D-galactopyranosyloxy)-2-[(R)-2-hydroxytetracosanoylamino]-3,4-pentadecanediol] | 312 | 89 | 81 | 10 | 10 | 9 | 9 | 9 | 9 | 9 | 21.0 ± 5.9 × 10^4 /μl | 108.7 ± 14.8 × 10^4 /μl | – | – | 761 | 402 | 344 | 197 |
| CCCCCCCCCCCCCCCCCCCCCC[C@@H](O)C(=O)N[C@@H](CO[C@H]1O[C@H](CO)[C@H](O)[C@H](O)[C@H]1O)[C@H](O)[C@H](O)CCCCCCCCCCCCC [Compound 22, (2S,3S,4R)-1-(α-D-galactopyranosyloxy)-2-[(R)-2-hydroxytetracosanoylamino]-3,4-heptadecanediol] | 226 | 116 | 104 | 10 | 10 | 10 | 9 | 8 | 8 | 8 | 25.4 ± 5.1 × 10^4 /μl | 104.1 ± 7.7 × 10^4 /μl | – | – | 613 | 362 | 357 | 204 |
| CCCCCCCCCCCCCCCCCCCCCCCCCCCC(=O)N[C@@H](CO[C@H]1O[C@H](CO)[C@H](O)[C@H](O)[C@H]1O)[C@H](O)[C@H](O)CCCCCCCCCCCCC [Compound 34, (2S,3S,4R)-1-(α-D-galactopyranosyloxy)-2-octacosanoylamino-3,4-heptadecanediol] | 272 | 183 | 150 | 10 | 10 | 10 | 9 | 9 | 9 | 9 | 24.4 ± 5.6 × 10^4 /μl | 110.1 ± 9.0 × 10^4 /μl | – | – | – | 467 | 258 | 291 |
| CCCCCCCCCCCCCCCCCCCCCC[C@@H](O)C(=O)N[C@@H](CO[C@H]1O[C@H](CO)[C@H](O)[C@H](O)[C@H]1O)[C@H](O)CCCCCCCCCCCCCCC [Compound 14, (2S,3R)-1-(α-D-galactopyranosyloxy)-2-[(R)-2-hydroxytetracosanoylamino]-3-octadecanol] | 511 | 132 | 134 | 10 | 10 | 10 | 9 | 9 | 9 | 9 | 22.3 ± 6.6 × 10^4 /μl | 101.6 ± 8.3 × 10^4 /μl | – | – | – | 233 | 141 | 96 |
| CCCCCCCCCCCCCCCCCCCCCCCC(=O)N[C@@H](CO[C@H]1O[C@H](CO)[C@H](O)[C@H](O)[C@H]1O)[C@H](O)[C@H](O)CCCCCCCCCCC [Compound 18, (2S,3S,4R)-1-(α-D-galactopyranosyloxy)-2-tetracosanoylamino-3,4-pentadecanediol] | 472 | 124 | 129 | 10 | 10 | 8 | 7 | 7 | 7 | 7 | 24.3 ± 8.6 × 10^4 /μl | 111.7 ± 5.4 × 10^4 /μl | – | – | – | 298 | 177 | 135 |
